The record followed here is ChEMBL document CHEMBL2074111, “Functional characterization of the rat mdr1b encoded P-glycoprotein: not all inducing agents are substrates” (Carcinogenesis, 1997).

Structures are written as SMILES.

The data set concerns the target ATP-dependent translocase ABCB1 (Rattus norvegicus, UniProt P43245). The data set can be described thus: TP_TRANSPORTER: intracellular accumulation in mdr1b-expressing NIH3T3 cells. The settings on record: mouse. The data set is classed as functional, cell-based.

Sequence of ATP-dependent translocase ABCB1 (P43245 whole entry): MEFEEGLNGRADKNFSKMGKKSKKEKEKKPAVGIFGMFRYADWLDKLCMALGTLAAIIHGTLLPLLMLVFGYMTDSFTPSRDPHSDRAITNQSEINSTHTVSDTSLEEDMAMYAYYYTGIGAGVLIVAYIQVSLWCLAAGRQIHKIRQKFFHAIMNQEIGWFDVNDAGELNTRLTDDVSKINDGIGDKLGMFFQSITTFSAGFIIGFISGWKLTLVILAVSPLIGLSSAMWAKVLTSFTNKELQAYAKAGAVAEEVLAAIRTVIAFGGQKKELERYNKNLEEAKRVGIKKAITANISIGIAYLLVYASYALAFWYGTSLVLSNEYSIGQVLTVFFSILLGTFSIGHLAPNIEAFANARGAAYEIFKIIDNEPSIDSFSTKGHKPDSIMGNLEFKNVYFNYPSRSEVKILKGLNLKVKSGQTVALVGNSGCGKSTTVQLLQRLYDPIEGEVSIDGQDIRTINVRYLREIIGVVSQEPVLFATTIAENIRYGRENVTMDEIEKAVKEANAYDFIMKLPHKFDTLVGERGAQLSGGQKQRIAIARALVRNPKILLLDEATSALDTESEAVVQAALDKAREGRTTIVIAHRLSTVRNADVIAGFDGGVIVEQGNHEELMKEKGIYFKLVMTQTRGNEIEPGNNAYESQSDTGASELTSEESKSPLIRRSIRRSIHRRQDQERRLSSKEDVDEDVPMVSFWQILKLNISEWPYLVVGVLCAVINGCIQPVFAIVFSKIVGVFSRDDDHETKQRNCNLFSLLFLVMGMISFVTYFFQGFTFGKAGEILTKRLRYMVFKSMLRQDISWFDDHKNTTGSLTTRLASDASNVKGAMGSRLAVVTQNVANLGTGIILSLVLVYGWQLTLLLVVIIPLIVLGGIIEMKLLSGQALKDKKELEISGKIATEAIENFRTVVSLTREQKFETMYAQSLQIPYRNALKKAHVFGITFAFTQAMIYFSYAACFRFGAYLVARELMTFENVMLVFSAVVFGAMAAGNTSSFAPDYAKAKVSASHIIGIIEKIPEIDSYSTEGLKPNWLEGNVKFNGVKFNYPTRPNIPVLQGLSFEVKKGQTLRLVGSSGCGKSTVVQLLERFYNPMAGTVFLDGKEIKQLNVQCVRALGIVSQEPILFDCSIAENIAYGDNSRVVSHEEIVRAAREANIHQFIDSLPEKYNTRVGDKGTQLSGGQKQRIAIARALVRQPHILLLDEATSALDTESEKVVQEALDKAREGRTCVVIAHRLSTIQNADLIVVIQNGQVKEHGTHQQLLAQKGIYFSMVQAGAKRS

Turning to `COC(=O)c1ccccc1-c1c2ccc(=N)cc-2oc2cc(N)ccc12.Cl` [RHODAMINE123], the Activity result was “substrate [+]”.
